Key:
Format in all cases: cell-based, mouse
[1] = test system: B cells stimulated with anti-CD40; assay: Purified B cell proliferation, anti-CD40, 3H-thymidine incorporation (Example 4)
Protocol: (§1) FIG. 10 is a graphical representation depicting that 3,4-DAA and 3-HAA inhibit B and T cell proliferation in vitro. Purified B and T cells were stimulated for 72 h with anti-CD40 (a), or anti-CD3/anti-CD28 (b) respectively, in the presence of varying doses of 3,4-DAA, or 3-HAA.
(§2) A single cell suspension was prepared from spleen by mincing through a cell strainer, and erythrocytes were lysed using an ammonium chloride solution (Sigma, St Louis, Mo., USA). B cells were positively enriched by using anti-IgM MACS microbeads, and T cells were positively enriched using anti-CD4 MACS microbeads and the MACS system, according to the manufacturer's guidelines (Miltenyi Biotec, Bergisch Gladbach, Germany). Purity was assessed by flow cytometric analysis (B cell>90% CD19+, T cell>90% CD4+). Cells were cultured at 5×10^5 cells/ml in 200 μl complete RPMI, as above, in a flat bottom 96-well plate and cultured for 72 h. B cells were stimulated with anti-CD40 monoclonal antibody (10 μg/ml; BD), and T cells were stimulated with 5 μg/ml plate-bound anti-CD3 (BD), 5 μg/ml soluble anti-CD28 (BD). Tranilast, 3-HAA, or vehicle (DMSO) were incubated at concentrations stated with the cultures. 48 hours after stimulation, 100 μl culture medium was collected, and cells were pulsed with 1 μCi ^3H thymidine per well for 18 h. Cells were then harvested and plates assessed for incorporation. Each assay was performed on a minimum of 3 occasions. Data shown is of one representative experiment, and is expressed as mean+/−SD of triplicate in culture. IFN-γ, IL-10 and IL-5 levels was assessed in the culture medium by ELISA, as above.

[2] = test system: T cells stimulated with anti-CD3/anti-CD28; assay: Cytokine production by stimulated T cells in vitro (ELISA)
Protocol: as §1, §2

[3] = test system: T cells stimulated with anti-CD3/anti-CD28; assay: Purified T cell proliferation, anti-CD3/anti-CD28, 3H-thymidine incorporation (Example 4)
Protocol: as §1, §2

SMILES: Nc1c(O)cccc1C(=O)O [3-HAA, 3-Hydroxyanthranilic acid]
- IC50 ([1]; Mus musculus, B-cell, anti-CD40, 72 h, 3H-thymidine (FIG. 10A), read-out: IC50 for inhibition of B cell proliferation): 64.7 µM
- B cell proliferation ([1]; anti-CD40, varying doses (FIG. 10A)): dose-dependently inhibited
- IFN-γ production by T-cells ([2]; FIG. 10C): dose-dependently reduced
- IL-10 production by T-cells ([2]; FIG. 10D): increased
- IL-5 production by T-cells ([2]; FIG. 10E): increased
- IC50 ([3]; Mus musculus, T-cell, anti-CD3/CD28, 72 h, 3H-thymidine (FIG. 10B), read-out: IC50 for inhibition of T cell proliferation): 100 µM
- T cell proliferation ([3]; anti-CD3/CD28, varying doses (FIG. 10B)): dose-dependently inhibited

— US20100041756A1, “METHOD OF MODULATING B CELL FUNCTIONING” (priority 2004, published 2010)
